In article PMC8233901, “D-Amino Acid-Containing Lipopeptides Derived from the Lead Peptide BP100 with Activity against Plant Pathogens” (International Journal of Molecular Sciences, 2021):
Several values for one entry are separate records, joined by “and”; a condition that tells them apart may be missing. Equal entries are not always repeated. Where two headings read alike, the source gives them in different places. Where a SMILES comes first, the peptide text is derived from it. [ ]: non-standard residue; d: D form. The star is where a group is joined. Butyryl = CCCC(=O)*

How the values were obtained:
tobacco leaves [1] = system: tobacco leaves; parameters: method as in earlier work; conditions: all-L parent lipopeptides, ± confidence interval, cited from earlier work
horse erythrocytes [2] = system: horse erythrocytes; parameters: method as in earlier work; conditions: all-L parent lipopeptides, ± confidence interval (α = 0.05), cited from earlier work
tobacco leaves [3] = assay: Effect of peptide infiltration on tobacco leaves (lesion size); assay type: in vivo; conditions: ± confidence interval; for Size of the lesion (mm) 50 µM: 100 µL infiltrated into mesophyll of tobacco leaves
Method: The lipopeptides were evaluated for their effect upon infiltration on tobacco leaves as described previously. Peptide solutions of 50, 150 and 250 μM were infiltrated (100 μL) into the mesophylls of fully expanded tobacco leaves. Infiltrations were carried out in a single leaf, and for each peptide and dose, at least three leaves randomly distributed in different plants were infiltrated. Control infiltrations with water (negative control) or melittin (positive control) at the same molar concentration were performed. The appearance of symptoms on the leaves was followed for 48 h after infiltration and measured as a lesion diameter.

horse erythrocytes [4] = assay: Hemolytic activity (hemoglobin release from erythrocytes); assay type: cell-based; conditions: D-amino acid lipopeptides, TRIS buffer pH 7.2, 1 h, 37 °C, ± confidence interval (α = 0.05); for Hemolysis (%) 250 µM / Hemolysis (%) 150 µM / Hemolysis (%) 375 µM: relative to melittin
Method: The hemolytic activity of the compounds was evaluated by determining hemoglobin release from erythrocyte suspensions of horse blood (5% vol/vol) (Oxoid) as previously described. Blood was centrifuged at 6000 g for 5 min, washed three times with tris(hydroxymethyl)aminomethane (TRIS) buffer (10 mM TRIS, 150 mM NaCl, pH 7.2) and diluted 10 times. Compounds were solubilized in TRIS buffer at 750, 500, 300 and 100 μM and mixed with horse erythrocytes (1:1 v/v). The mixture was incubated under continuous shaking for 1 h at 37 °C. Then, the tubes were centrifuged at 3500 g for 10 min, 80 μL aliquots of the supernatant transferred to 100-well microplates (Bioscreen), diluted with 80 μL water, and the absorbance measured at 540 nm (Bioscreen). Complete hemolysis was obtained by the addition of melittin at 100 μM (Sigma-Aldrich Corporation, Madrid, Spain). The percentage of hemolysis (H) was calculated using the equation: H = 100 × [(Op−Ob)/(Om−Ob)], where Op is the density for a given compound concentration, Ob for the buffer, and Om for the melittin-positive control.

[5] = D-amino acid lipopeptides, lesion diameter, 48 h, at least three leaves
[6] = D-amino acid lipopeptides, 100 µL infiltrated into tobacco leaves, lesion diameter, 48 h, at least three leaves
[7] = D-amino acid lipopeptides, 250 µM, 100 µL infiltrated into tobacco leaves, lesion diameter, 48 h, at least three leaves
[8] = Table 2, 250 µM infiltrated into tobacco leaves

Compound	Size of the lesion (mm) 50 µM (tobacco leaves [1]; 50 µM) [mm]	Size of the lesion (mm) 150 µM (tobacco leaves [1]; 150 µM) [mm]	Size of the lesion (mm) 250 µM (tobacco leaves [1]; 250 µM) [mm]	Hemolysis (%) 50 µM (horse erythrocytes [2]; 50 µM) [%]	Hemolysis (%) 250 µM (horse erythrocytes [2]; 250 µM) [%]	Hemolysis (%) 375 µM (horse erythrocytes [2]; 375 µM) [%]	Size of the lesion (mm) 50 µM (tobacco leaves [3]; [5]) [mm]	Size of the lesion (mm) 150 µM (tobacco leaves [3]; [6]) [mm]	Size of the lesion (mm) 250 µM (tobacco leaves [3]; [7]) [mm]	Size of the lesion (mm) 250 µM (tobacco leaves [3]; [8]) [mm]	Hemolysis (%) 250 µM (horse erythrocytes [4])	Hemolysis (%) 50 µM (horse erythrocytes [4]; 50 µM, absorbance 540 nm, relative to melittin 100 µM) [%]	Hemolysis (%) 150 µM (horse erythrocytes [4]) [%]	Hemolysis (%) 375 µM (horse erythrocytes [4]) [%]
Ac-KKLFKKILKK(COC3H7)L-NH2 [BP389, analog of BP475 with all L-amino acids]	4 ± 1	7 ± 1	9 ± 3	9 ± 4	22 ± 2	39 ± 3								
CCCC(=O)N[C@@H](CCCCN)C(=O)N[C@@H](CCCCN)C(=O)N[C@@H](CC(C)C)C(=O)N[C@H](Cc1ccccc1)C(=O)N[C@@H](CCCCN)C(=O)N[C@@H](CCCCN)C(=O)N[C@H](C(=O)N[C@@H](CC(C)C)C(=O)N[C@@H](CCCCN)C(=O)N[C@@H](Cc1ccc(O)cc1)C(=O)N[C@@H](CC(C)C)C(N)=O)[C@@H](C)CC [BP485, C3H7CO-KKLfKKILKYL-NH2]							4 ± 0.7	7 ± 0.7	12 ± 1	12 ± 1	24 ± 9%			
CCCC(=O)NCCCC[C@H](NC(=O)[C@@H](Cc1ccccc1)NC(=O)[C@H](CC(C)C)NC(=O)[C@H](CCCCN)NC(=O)[C@H](CCCCN)NC(C)=O)C(=O)N[C@@H](CCCCN)C(=O)N[C@H](C(=O)N[C@@H](CC(C)C)C(=O)N[C@@H](CCCCN)C(=O)N[C@@H](Cc1ccc(O)cc1)C(=O)N[C@@H](CC(C)C)C(N)=O)[C@@H](C)CC [BP498, Ac-KKLfK(COC3H7)KILKYL-NH2]							4 ± 3	6 ± 2	6 ± 1	6 ± 1	21 ± 3%			
CCCC(=O)NCCCC[C@H](NC(=O)[C@H](CCCCN)NC(=O)[C@H](CC(C)C)NC(=O)[C@@H](NC(=O)[C@H](CCCCN)NC(=O)[C@H](CCCCN)NC(=O)[C@@H](Cc1ccccc1)NC(=O)[C@H](CC(C)C)NC(=O)[C@H](CCCCN)NC(=O)[C@H](CCCCN)NC(C)=O)[C@@H](C)CC)C(=O)N[C@@H](CC(C)C)C(N)=O [BP475, Ac-KKLfKKILKK(COC3H7)L-NH2] (Ac-KKL[dF]KKILKK(Butyryl)L-NH2)							5 ± 1	7 ± 2	10 ± 1	10 ± 1	0 ± 0% and 0%	0 ± 0	0 ± 0	0 ± 0
CCCC(=O)NCCCC[C@H](NC(=O)[C@H](CCCCN)NC(C)=O)C(=O)N[C@@H](CC(C)C)C(=O)N[C@H](Cc1ccccc1)C(=O)N[C@@H](CCCCN)C(=O)N[C@@H](CCCCN)C(=O)N[C@H](C(=O)N[C@@H](CC(C)C)C(=O)N[C@@H](CCCCN)C(=O)N[C@@H](Cc1ccc(O)cc1)C(=O)N[C@@H](CC(C)C)C(N)=O)[C@@H](C)CC [BP486, Ac-KK(COC3H7)LfKKILKYL-NH2]							4 ± 1	8 ± 1	17 ± 2	17 ± 2	14 ± 5%			14 ± 2
CCCC(=O)NCCCC[C@H](NC(=O)[C@H](CC(C)C)NC(=O)[C@@H](NC(=O)[C@H](CCCCN)NC(=O)[C@H](CCCCN)NC(=O)[C@@H](Cc1ccccc1)NC(=O)[C@H](CC(C)C)NC(=O)[C@H](CCCCN)NC(=O)[C@H](CCCCN)NC(C)=O)[C@@H](C)CC)C(=O)N[C@@H](Cc1ccc(O)cc1)C(=O)N[C@@H](CC(C)C)C(N)=O [BP499, Ac-KKLfKKILK(COC3H7)YL-NH2]							6 ± 1	8 ± 2	8 ± 2	8 ± 2	11 ± 1%			
CCCCCCCCCCCC(=O)NCCCC[C@H](NC(=O)[C@H](CC(C)C)NC(=O)[C@@H](NC(=O)[C@H](CCCCN)NC(=O)[C@H](CCCCN)NC(=O)[C@@H](Cc1ccccc1)NC(=O)[C@H](CC(C)C)NC(=O)[C@H](CCCCN)NC(=O)[C@H](CCCCN)NC(C)=O)[C@@H](C)CC)C(=O)N[C@@H](Cc1ccc(O)cc1)C(=O)N[C@@H](CC(C)C)C(N)=O [BP497, Ac-KKLfKKILK(COC11H23)YL-NH2]							5 ± 1	18 ± 1	18 ± 0	18 ± 0	100 ± 2%		100 ± 2	100 ± 4
